Reference: patent US20100298141A1, “SUBSTITUTED PYRIDINE N-OXIDE HERBICIDES” (E. I. DU PONT DE NEMOURS AND COMPANY, priority 2007, published 2010)

Key:
crabgrass [1] = assay: Test C pre-/postemergence test; type: in vivo, Digitaria sanguinalis
How it was run: (§1)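 Compounds in a non-phytotoxic solvent with surfactant applied preemergence to seeded pots and, at the same time, postemergence to plants 2–18 cm tall (1- to 4-leaf stage). Paddy tests: pots flooded to 3 cm, compound applied into the water, depth held throughout.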

morningglory = assay: Test A pre-/postemergence greenhouse test; type: in vivo, Ipomoea spp.; conditions: for Morningglory plant response rating: 0 to 100 scale
How it was run: (§2)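 Pots of loam–sand soil sown with the test species are sprayed preemergence on the soil surface; emerged seedlings (1–2 leaves, 2–10 cm) are sprayed postemergence at the same time. The vehicle is a non-phytotoxic solvent mixture with surfactant. Injury is scored visually after ~10 d in greenhouse.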

lambsquarters = assay: Test C pre-/postemergence test; type: in vivo, Chenopodium album
How it was run: as §1

Goosegrass = assay: Test C pre-/postemergence test; type: in vivo, Eleusin indica
How it was run: as §1

cocklebur = assay: Test C pre-/postemergence test; type: in vivo, Xanthium strumarium
How it was run: as §1

pigweed = assay: Test C pre-/postemergence test; type: in vivo, Amaranthus retroflexus
How it was run: as §1

kochia = assay: Test C pre-/postemergence test; type: in vivo, Kochia scoparia
How it was run: as §1

[2] = test system: common (oilseed) sunflower; assay: Test C pre-/postemergence test; type: in vivo, Helianthus annuus; conditions: for Sunflower plant response rating: preemergence, scale 0 (no effect) to 100 (complete control)
How it was run: as §1

bermudagrass = assay: Test C pre-/postemergence test; type: in vivo, Cynodon dactylon
How it was run: as §1

barnyardgrass [3] = assay: Test C flooded paddy test; type: in vivo, Echinochloa crus-galli; conditions: Flood
How it was run: (§3)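 Test compounds are applied straight into paddy water held 3 cm above the soil surface, with that flood maintained for the whole test. After 13 to 15 days in the greenhouse, each species is scored visually relative to controls.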

Italian ryegrass = assay: Test C pre-/postemergence test; type: in vivo, Lolium multiflorum
How it was run: as §1

giant foxtail = assay: Test A pre-/postemergence greenhouse test; type: in vivo, Setaria faberi; conditions: for Foxtail, Giant plant response rating: 0 to 100 scale
How it was run: as §2

Surinam grass = assay: Test C pre-/postemergence test; type: in vivo, Brachiaria decumbens; conditions: for Surinam Grass plant response rating: preemergence, scale 0 (no effect) to 100 (complete control)
How it was run: as §1

umbrella sedge = assay: Test C flooded paddy test; type: in vivo, Cyperus difformis; conditions: Flood
How it was run: as §3

barnyardgrass [4] = assay: Test A pre-/postemergence greenhouse test; type: in vivo, Echinochloa crus-galli; conditions: for Barnyardgrass plant response rating: 0 to 100 scale
How it was run: as §2

soybean = assay: Test C pre-/postemergence test; type: in vivo, Glycine max
How it was run: as §1

crabgrass [5] = assay: Test A pre-/postemergence greenhouse test; type: in vivo, Digitaria sanguinalis; conditions: for Crabgrass, Large plant response rating: 0 to 100 scale
How it was run: as §2

[6] = 31 g ai/ha, Preemergence, scale 0 to 100
[7] = 62 g ai/ha, preemergence, scale 0 (no effect) to 100 (complete control)
[8] = preemergence, 125 g ai/ha, scale 0 (no effect) to 100 (complete control)
[9] = Postemergence, 125 g ai/ha, 0 is no effect, 100 is complete control
[10] = Postemergence, 500 g ai/ha, 0 is no effect, 100 is complete control
[11] = Preemergence, 125 g ai/ha, 0 no effect, 100 complete control
[12] = Preemergence, 500 g ai/ha, 0 to 100 scale where 0 is no effect and 100 is complete control
[13] = 31 g ai/ha, scale 0 to 100 (0 no effect, 100 complete control)
[14] = 62 g ai/ha, scale 0 to 100, 0 no effect, 100 complete control, 13 to 15 days
[15] = 125 g ai/ha, scale 0 to 100, 0 no effect, 100 complete control, 13 to 15 days

Cn1nc(C(F)(F)F)c(C[S+]([O-])c2ccc(Br)c[n+]2[O-])c1OC(F)F (racemic) [Compound 16]
85: Plant response rating (0 to 100), Sunflower ([2]; Preemergence, 250 g ai/ha)
70: Crabgrass, Large plant response rating (crabgrass [5]; [9])
20: Morningglory plant response rating (morningglory; [9]) | Kochia plant response rating (kochia; [6])
90: Lambsquarters plant response rating (lambsquarters; [7]) | Foxtail, Giant plant response rating (giant foxtail; [10]) | Barnyardgrass plant response rating (barnyardgrass [4]; [9]) | Barnyardgrass plant response rating (barnyardgrass [4]; [11]) | Crabgrass, Large plant response rating (crabgrass [5]; [10])
100: Plant response rating (0 to 100), Crabgrass, Large (crabgrass [1]; Preemergence, 250 g ai/ha) | Crabgrass, Large plant response rating (crabgrass [1]; [8]) | Plant response rating (0 to 100), Lambsquarters (lambsquarters; Preemergence, 250 g ai/ha) | Lambsquarters plant response rating (lambsquarters; [8]) | Goosegrass plant response rating (Goosegrass; [7]) | Plant response rating (0 to 100), Goosegrass (Goosegrass; Preemergence, 250 g ai/ha) | Goosegrass plant response rating (Goosegrass; [8]) | Pigweed plant response rating (pigweed; [6]) | Pigweed plant response rating (pigweed; [7]) | Plant response rating (0 to 100), Pigweed (pigweed; Preemergence, 250 g ai/ha) | Pigweed plant response rating (pigweed; [8]) | Kochia plant response rating (kochia; [7]) | Plant response rating (0 to 100), Kochia (kochia; Preemergence, 250 g ai/ha) | Kochia plant response rating (kochia; [8]) | Plant response rating (0 to 100), Bermudagrass (bermudagrass; Preemergence, 250 g ai/ha) | Bermudagrass plant response rating (bermudagrass; [8]) | Plant response rating (0 to 100), Ryegrass, Italian (Italian ryegrass; Preemergence, 250 g ai/ha) | Foxtail, Giant plant response rating (giant foxtail; [11]) | Plant response rating, Foxtail, Giant (giant foxtail; [12]) | Plant response rating (0 to 100), Surinam Grass (Surinam grass; Preemergence, 250 g ai/ha) | Surinam Grass plant response rating (Surinam grass; 125 g ai/ha) | Barnyardgrass plant response rating (barnyardgrass [4]; [10]) | Plant response rating, Barnyardgrass (barnyardgrass [4]; [12]) | Plant response rating, Crabgrass, Large (crabgrass [5]; [12])
50: Sunflower plant response rating ([2]; 125 g ai/ha) | Ryegrass, Italian plant response rating (Italian ryegrass; [7])
80: Crabgrass, Large plant response rating (crabgrass [1]; [6]) | Plant response rating, Morningglory (morningglory; [12]) | Lambsquarters plant response rating (lambsquarters; [6]) | Bermudagrass plant response rating (bermudagrass; [6]) | Foxtail, Giant plant response rating (giant foxtail; [9]) | Plant response rating (0 to 100), Soybean (soybean; Preemergence, 250 g ai/ha) | Crabgrass, Large plant response rating (crabgrass [5]; [11])
0: Cocklebur plant response rating (cocklebur; [6]) | Cocklebur plant response rating (cocklebur; [7]) | Plant response rating (0 to 100), Cocklebur (cocklebur; Preemergence, 250 g ai/ha) | Cocklebur plant response rating (cocklebur; [8]) | Plant response rating, Barnyardgrass (barnyardgrass [3]; [13]) | Plant response rating, Barnyardgrass (barnyardgrass [3]; [14]) | Plant response rating, Barnyardgrass (barnyardgrass [3]; [15]) | Plant response rating, Barnyardgrass (barnyardgrass [3]; 250 g ai/ha, scale 0 to 100 (0 no effect, 100 complete control)) | Plant response rating, Sedge, Umbrella (umbrella sedge; [13]) | Plant response rating, Sedge, Umbrella (umbrella sedge; [14]) | Plant response rating, Sedge, Umbrella (umbrella sedge; [15]) | Plant response rating, Sedge, Umbrella (umbrella sedge; 250 g ai/ha, scale 0 to 100, 0 no effect, 100 complete control, 13 to 15 days) | Soybean plant response rating (soybean; [6])
55: Ryegrass, Italian plant response rating (Italian ryegrass; [8]) | Surinam Grass plant response rating (Surinam grass; 62 g ai/ha)
60: Morningglory plant response rating (morningglory; [10]) | Soybean plant response rating (soybean; [8])
30: Morningglory plant response rating (morningglory; [11]) | Sunflower plant response rating ([2]; 62 g ai/ha) | Ryegrass, Italian plant response rating (Italian ryegrass; [6]) | Soybean plant response rating (soybean; [7])
98: Crabgrass, Large plant response rating (crabgrass [1]; [7]) | Goosegrass plant response rating (Goosegrass; [6]) | Bermudagrass plant response rating (bermudagrass; [7])
